Results published in patent publication US20240109930A1, “TRIAZOLYL-METHYL SUBSTITUTED ALPHA-D-GALACTOPYRANOSIDE DERIVATIVES” (Idorsia Pharmaceuticals Ltd, priority 2021, published 2024).

How the values were obtained:
[1] = target: human Gal-1 (hGal-1) (Homo sapiens, UniProt P09382, C131S/C17S/C43S/C61S/C89S); experiment: Competitive binding assay: biotinylated hGal-1 binding to microplate-adsorbed asialofetuin (ASF); settings: IC50 values from several measurements given as geomean
Method: (§1) The inhibitory activity of compounds is determined in competitive binding assays. This spectrophotometric assay measures the binding of biotinylated human Gal-3 (hGal-3) or human Gal-1 (hGal-1), respectively, to a microplate-adsorbed glycoprotein, asialofetuin (ASF) (Proc Natl Acad Sci USA. 2013 Mar. 26; 110(13):5052-7.). Alternatively, and preferably, a human Gal-1 version in which all six cysteines are substituted by serines may be used.
(§2) Briefly, compounds are serially diluted in DMSO (working dilutions). ASF-coated 384well plates are supplemented with 22.8 μL/well of biotinylated hGal-3 or hGal-1 in assay buffer (i.e. 300-1000 ng/mL biotinylated hGal-3 or hGal-1) to which 1.2 μL of compound working dilutions are added and mixed.
(§3) Plates are incubated for 3 hours at 4° C., then washed with cold assay buffer (3×50 uL), incubated for 1 hour with 25 μL/well of a streptavidin-peroxidase solution (diluted in assay buffer to 80 ng/mL) at 4° C., followed by further washing steps with assay buffer (3×50 uL). Finally, 25 μL/well of ABTS substrate is added.
(§4) The calculated IC50 values may fluctuate depending on the daily assay performance. Fluctuations of this kind are known to those skilled in the art. IC50 values from several measurements are given as geomean values.

[2] = target: human Gal-3 (hGal-3) (Homo sapiens (Human), UniProt P17931); experiment: Competitive binding assay: biotinylated hGal-3 binding to microplate-adsorbed asialofetuin (ASF); settings: IC50 values from several measurements given as geomean
Method: as §1, §2, §3, §4

human Gal-3 (hGal-3), sequence (P17931 whole entry): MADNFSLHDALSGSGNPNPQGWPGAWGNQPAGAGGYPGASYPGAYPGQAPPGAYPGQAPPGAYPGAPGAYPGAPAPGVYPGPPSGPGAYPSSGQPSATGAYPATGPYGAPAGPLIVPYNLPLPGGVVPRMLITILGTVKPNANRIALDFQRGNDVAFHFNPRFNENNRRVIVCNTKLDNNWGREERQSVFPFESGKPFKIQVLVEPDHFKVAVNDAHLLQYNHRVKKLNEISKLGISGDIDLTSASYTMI

Compound	IC50 [1]	IC50 [2]
CO[C@@H]1[C@@H](n2cc(-c3ccc(Cl)c(F)c3F)nn2)[C@@H](O)[C@@H](CO)O[C@@H]1Cn1cc(C2(CO)CC2)nn1 [Ex 2.2.4.]	1480 nM	50 nM
CO[C@@H]1[C@@H](n2cc(-c3ccc(C)c(F)c3F)nn2)[C@@H](O)[C@@H](CO)O[C@@H]1Cc1cn([C@]2(C)C[C@H](O)C2)nn1 [Ex 1.1.19.]	670 nM	20 nM
CO[C@@H]1[C@@H](n2cc(-c3ccc(Cl)c(F)c3F)nn2)[C@@H](O)[C@@H](CO)O[C@@H]1Cc1cn([C@@H]2CCOC[C@@H]2F)nn1 [Example 2.1.66.A, (2R,3R,4S,5R,6R)-4-(4-(4-chloro-2,3-difluorophenyl)-1H-1,2,3-triazol-1-yl)-6-((1-((3R,4R)-3-fluorotetrahydro-2H-pyran-4-yl)-1H-1,2,3-triazol-4-yl)methyl)-2-(hydroxymethyl)-5-methoxytetrahydro-2H-pyran-3-ol]	570 nM	10 nM
CO[C@@H]1[C@@H](n2cc(-c3ccc(C)c(F)c3F)nn2)[C@@H](O)[C@@H](CO)O[C@@H]1Cc1cn(C2(C)CCC2)nn1 [Ex 1.1.13.]	1450 nM	30 nM
CO[C@@H]1[C@@H](n2cc(-c3ccc(Cl)c(F)c3F)nn2)[C@@H](O)[C@@H](CO)O[C@@H]1Cc1cn([C@]2(C)C[C@H](O)C2)nn1 [Ex 2.1.19.]	630 nM	40 nM
CO[C@@H]1[C@@H](n2cc(-c3ccc(F)c(F)c3F)nn2)[C@@H](O)[C@@H](CO)O[C@@H]1Cc1cn([C@@H]2CCOC[C@H]2F)nn1 (single isomer, unassigned) [Example 3.1.66.C, (2R,3R,4S,5R,6R)-6-((1-((3S*,4R*)-3-fluorotetrahydro-2H-pyran-4-yl)-1H-1,2,3-triazol-4-yl)methyl)-2-(hydroxymethyl)-5-methoxy-4-(4-(2,3,4-trifluorophenyl)-1H-1,2,3-triazol-1-yl)tetrahydro-2H-pyran-3-ol]	270 nM	40 nM
CO[C@@H]1[C@@H](n2cc(-c3ccc(C)c(F)c3F)nn2)[C@@H](O)[C@@H](CO)O[C@@H]1Cc1cn(C2CC3(CC3)C2)nn1 [Ex 1.1.26.]	17100 nM	60 nM
CO[C@@H]1[C@@H](n2cc(-c3ccc(F)c(F)c3F)nn2)[C@@H](O)[C@@H](CO)O[C@@H]1Cc1cn(C23COC(C)(C2)C3)nn1 [Ex 3.1.59.]	520 nM	40 nM
COCC1(n2cc(C[C@H]3O[C@H](CO)[C@H](O)[C@H](n4cc(-c5ccc(C)c(F)c5F)nn4)[C@H]3OC)nn2)CC1 [Ex 1.1.7.]	5100 nM	60 nM
CO[C@@H]1[C@@H](n2cc(-c3ccc(Cl)c(F)c3F)nn2)[C@@H](O)[C@@H](CO)O[C@@H]1Cc1cn(C(C)(C)C(F)F)nn1 [Ex 2.1.28.]	780 nM	40 nM
CO[C@@H]1[C@@H](n2cc(-c3ccc(F)c(F)c3F)nn2)[C@@H](O)[C@@H](CO)O[C@@H]1Cc1cn(C2(CF)CC2)nn1 [Ex 3.1.46., (2R,3R,4S,5R,6R)-6-((1-(1-(fluoromethyl)cyclopropyl)-1H-1,2,3-triazol-4-yl)methyl)-2-(hydroxymethyl)-5-methoxy-4-(4-(2,3,4-trifluorophenyl)-1H-1,2,3-triazol-1-yl)tetrahydro-2H-pyran-3-ol]	400 nM	70 nM
CO[C@@H]1[C@@H](n2cc(-c3ccc(Br)c(F)c3F)nn2)[C@@H](O)[C@@H](CO)O[C@@H]1Cc1cn(C2(C(F)F)COC2)nn1 [Ex 4.1.53.]	650 nM	20 nM
CO[C@@H]1[C@@H](n2cc(-c3ccc(F)c(F)c3F)nn2)[C@@H](O)[C@@H](CO)O[C@@H]1Cc1cn(C2(CO)CC2)nn1 [Ex 3.1.4.]	810 nM	60 nM
CO[C@@H]1[C@@H](n2cc(-c3ccc(F)c(F)c3F)nn2)[C@@H](O)[C@@H](CO)O[C@@H]1Cc1cn(C2(C)CCC2)nn1 [Ex 3.1.13.]	290 nM	30 nM
CO[C@@H]1[C@@H](n2cc(-c3ccc(C#N)c(F)c3F)nn2)[C@@H](O)[C@@H](CO)O[C@@H]1Cc1cn(C2(C(F)(F)F)COC2)nn1 [Ex 5.1.58.]	1910 nM	70 nM
CO[C@@H]1[C@@H](n2cc(-c3ccc(C)c(F)c3F)nn2)[C@@H](O)[C@@H](CO)O[C@@H]1Cc1cn(C2(CO)CC(F)(F)C2)nn1 [Ex 1.1.18.]	1470 nM	50 nM
COC1=C(N2CC(c3ccc(Br)c(F)c3F)NN2)C(O)=C(CO)O[C@@H]1Cn1cc(C23CCC(NC(=O)OC(C)(C)C)(CC2)CC3)nn1 (stereo partly shown) [Ex 4.2.37.]	11300 nM	50 nM

More lines, in order of falling IC50 [1], values ahead:

IC50 [1]	IC50 [2]	Compound
3440 nM	50 nM	CO[C@@H]1[C@@H](n2cc(-c3ccc(C)c(F)c3F)nn2)[C@@H](O)[C@@H](CO)O[C@@H]1Cc1cn(C2[C@H]3CCC[C@@H]23)nn1 (stereo partly shown) [Ex 1.1.20.]
2190 nM	60 nM	CO[C@@H]1[C@@H](n2cc(-c3ccc(Br)c(F)c3F)nn2)[C@@H](O)[C@@H](CO)O[C@@H]1Cn1cc(C23CCC(N)(CC2)CC3)nn1 [Ex 4.2.39.]
1200 nM	120 nM	COCC1(n2cc(C[C@H]3O[C@H](CO)[C@H](O)[C@H](n4cc(-c5ccc(F)c(F)c5F)nn4)[C@H]3OC)nn2)CC1 [Ex 3.1.7., (2R,3R,4S,5R,6R)-2-(Hydroxymethyl)-5-methoxy-6-((1-(1-(methoxymethyl)cyclopropyl)-1H-1,2,3-triazol-4-yl)methyl)-4-(4-(2,3,4-trifluorophenyl)-1H-1,2,3-triazol-1-yl)tetrahydro-2H-pyran-3-ol]
810 nM	60 nM	CO[C@@H]1[C@@H](n2cc(-c3ccc(F)c(F)c3F)nn2)[C@@H](O)[C@@H](CO)O[C@@H]1Cc1cn(C23CCOC(C)(C2)C3)nn1 [Ex 3.1.62.]
770 nM	60 nM	COCC1(n2cc(C[C@H]3O[C@H](CO)[C@H](O)[C@H](n4cc(-c5ccc(F)c(F)c5F)nn4)[C@H]3OC)nn2)COC1 [Ex 3.1.21.]
520 nM	20 nM	CO[C@@H]1[C@@H](n2cc(-c3ccc(C)c(F)c3F)nn2)[C@@H](O)[C@@H](CO)O[C@@H]1Cc1cn(C2(C(F)F)COC2)nn1 [Ex 1.1.53., (2R,3R,4S,5R,6R)-4-(4-(2,3-difluoro-4-methylphenyl)-1H-1,2,3-triazol-1-yl)-6-((1-(3-(difluoromethyl)oxetan-3-yl)-1H-1,2,3-triazol-4-yl)methyl)-2-(hydroxymethyl)-5-methoxytetrahydro-2H-pyran-3-ol]
470 nM	40 nM	CO[C@@H]1[C@@H](n2cc(-c3ccc(Cl)c(F)c3F)nn2)[C@@H](O)[C@@H](CO)O[C@@H]1Cc1cn([C@@]2(C(F)(F)F)C[C@H]3C[C@H]3C2)nn1 [Ex 2.1.69.]
300 nM	80 nM	CO[C@@H]1[C@@H](n2cc(-c3ccc(F)c(F)c3F)nn2)[C@@H](O)[C@@H](CO)O[C@@H]1Cn1cc(C2(C)CC2)nn1 [Ex 3.2.23.]
200 nM	40 nM	CO[C@@H]1[C@@H](n2cc(-c3ccc(F)c(F)c3F)nn2)[C@@H](O)[C@@H](CO)O[C@@H]1Cc1cn(C2(C(F)(F)F)COC2)nn1 [Ex 3.1.58., (2R,3R,4S,5R,6R)-2-(hydroxymethyl)-5-methoxy-6-((1-(3-(trifluoromethyl)oxetan-3-yl)-1H-1,2,3-triazol-4-yl)methyl)-4-(4-(2,3,4-trifluorophenyl)-1H-1,2,3-triazol-1-yl)tetrahydro-2H-pyran-3-ol]
